Entries after “also recorded” stand apart in the source; their conditions may differ. Read-outs that look alike come from different tables or passages of the source.
Key:
[1] = test system: hematopoietic progenitor cells (HPC: CD45+CD34+CD38−CD45RA−); test: Ex vivo expansion of hematopoietic progenitor cells from non-enriched UCB mononuclear cells; conditions: for relative effectiveness in inducing ex vivo expansion of HPC/HSPC (in words): among all the compounds screened; for enhancement of HPC expansion compared to cytokine control: 11 days (FIG. 9A)
CD34 cells = conditions: cited from earlier work
[2] = test system: CD45+ leukocytes of UCB-MNC; conditions: 5.0 μM; 72 hours / day 3; frozen-thawed MNC (FIG. 7)
Procedure: SB203580, DMSO and cytokines alone in serum-free expansion media (SFEM) served as the reference compound, vehicle and blank control, respectively. Data represents mean±SEM for n=3.
Annexin-V-FITC (Beckman Coulter, Inc., USA), 7-AAD (Beckman Coulter, Inc., USA) and CD45-PE-Cy7 were used for CD45+ cell viability analysis.
All compounds were assessed for their ability to maintain the viability of CD45+ leukocytes using Annexin V and 7-AAD. Induction of apoptosis in the CD45+ cells during ex vivo cultures limits expansion of HSPC.

[3] = test system: total nucleated cells (TNC); conditions: for expansion of TNC reduced, compared to 5.0 μM: 11 days (FIG. 9A)
From the text: UCB was obtained through Singapore Cord Blood Bank (SCBB), from donated units failing to meet the criteria for clinical banking. Prior consent was obtained from the donating mothers and the Research Advisory Ethics Committee of the SCBB, along with the Institutional Review Boards of National University of Singapore (NUS), and Singapore General Hospital (SGH) approved the usage of the samples. Mononuclear cells (MNC) were isolated from the fresh UCB by density gradient centrifugation using Ficoll-Histopaque™ Premium (GE Healthcare, UK). Counted UCB-MNC was cryopreserved in 90% v/v autologous plasma with 10% v/v dimethyl-sulfoxide (DMSO) (Sigma Aldrich, USA) for subsequent usage. UCB-MNC was thawed using human serum albumin (25% v/v) (Health Sciences Authority, Singapore) and Dextran 40 (75% v/v) (Hospira, USA). […] For certain experiments, cell cultures were initiated with purified populations such as early (CD45+CD34+CD38−) or late (CD45+CD34+CD38+) progenitor cells at optimal plating concentration of 5.0×10^4 cells/ml or 2.0×10^6 cells/ml, respectively. Such pure populations were obtained by labeling the frozen-thawed, non-enriched UCB-MNC using fluorescence conjugated antibodies followed by fluorescence activated cell sorting (FACS). The substituted azole-based small molecules dissolved in DMSO were added to the cultures at an empirically determined optimal concentration of 5.0 μM. UCB-MNC cultures devoid of small molecules but supplemented with cytokines served as control, while cultures supplemented with cytokines and DMSO served as vehicle control.
Cell cultures for in vitro experiments were done in 6- or 24-well plates (BD Falcon, USA), while culturing for in vivo transplantation studies was carried out in T-175 flasks (Corning, USA). Cell cultures were maintained in a humidified, 5% carbon dioxide incubator at 37° C. for the required duration. For UCB expansion evaluation and animal experimentation, an established 10-11-day expansion protocol was used which included cytokine and small molecule replenishment on day 7. At completion of incubation, cells were aspirated from the culture-ware with subsequent rinsing by Dulbecco's phosphate buffered saline (DPBS) (Hyclone, USA). The extracted cells were counted using an automated differential hematology cell counter (COULTER® AcT™ diff Hematology Analyzer, Beckman Coulter Inc, USA) and re-suspended in DPBS for subsequent in vitro analysis or transplantation in mice.

[4] = test system: colony forming unit (CFU) - granulocyte, macrophage (GM); conditions: 5.0 μM; SFEM; 10 days (FIG. 9B)
Procedure: Colony-forming units (CFU) of granulocyte-monocyte (GM) from freshly thawed UCB-MNC or 11 days expanded cells of the mentioned cell cultures were evaluated. Duplicates of freshly thawed UCB-MNC (5,000 and 10,000 cells) and expanded cells (1,000 and 5,000 cells) were cultured in 35 mm petri dishes (BD Falcon, USA) in 1.1 mL of hematopoietic stem cell (HSC)-CFU complete media with erythropoietin (EPO) (Miltenyi Biotec, Germany) without any further media manipulation. After 14-16 days in culture in a humidified environment at 37° C. and 5% CO2, colonies were scored and pictured using a SZ61 Olympus microscope equipped with charge-coupled device (CCD) camera (Olympus Europa GmbH, Germany).

UCB-MNC expanded cells = conditions: 5.0 μM; ACF; 11 days (FIG. 13E)
Procedure: UCB-MNC samples were fixed with modified Carnoy's fixative (Leica Biosystems, Germany) and placed onto glass microscope slides, and then dehydrated through an ethanol (Sigma-Aldrich, USA) series (70%, 85% and 100%) for 2 minutes followed by air-drying.
FISH assays were carried out using a panel of probes (Abbott Molecular, USA) comprising LSI D7S486 SpectrumOrange™/CEP 7 SpectrumGreen™, CEP 8 SpectrumAqua™/LSI MYC SpectrumOrange™, LSI CDKN2A SpectrumOrange™/CEP 9 SpectrumGreen™, LSI ABL1 SpectrumOrange™/BCR SpectrumGreen™ dual fusion translocation probe, LSI MLL dual color break-apart probe, LSI ETV6 SpectrumGreen™/RUNX1 SpectrumOrange™ extra signal dual color translocation probe, and LSI TP53 SpectrumOrange™/CEP 17 SpectrumGreen™ probe set. The FISH probes were applied to the fixed cells and co-denatured at 75° C., followed by an overnight hybridization at 37° C. Washes were performed and the slide was counterstained with DAPI anti-fade solution (Vectashield, Vector Laboratories, USA) and analyzed using an epi-fluorescence microscope (Leica, Germany).
Signals from 100 non-overlapping nuclei were enumerated for loss of LSI D7S486, trisomy 8, loss of CDKN2A, translocation involving ABL1 and BCR, MLL break-apart, translocation involving ETV6 and RUNX1, and loss of TP53. […]

CD34+ cells = conditions: 5.0 μM; 11 days (FIG. 17H)
[5] = test system: HSC2 (CD45+CD34+CD38−CD45RA−CD90+CD49f+); test: Ex vivo expansion of HSC2 from UCB-MNC; conditions: 5.0 μM; SFEM; over 10 days (FIG. 13C)
From the text: Mononuclear cells (MNC) were isolated from the fresh UCB by density gradient centrifugation using Ficoll-Histopaque™ Premium (GE Healthcare, UK). Counted UCB-MNC was cryopreserved in 90% v/v autologous plasma with 10% v/v dimethyl-sulfoxide (DMSO) (Sigma Aldrich, USA) for subsequent usage. UCB-MNC was thawed using human serum albumin (25% v/v) (Health Sciences Authority, Singapore) and Dextran 40 (75% v/v) (Hospira, USA). […] For certain experiments, cell cultures were initiated with purified populations such as early (CD45+CD34+CD38−) or late (CD45+CD34+CD38+) progenitor cells at optimal plating concentration of 5.0×10^4 cells/ml or 2.0×10^6 cells/ml, respectively. Such pure populations were obtained by labeling the frozen-thawed, non-enriched UCB-MNC using fluorescence conjugated antibodies followed by fluorescence activated cell sorting (FACS). The substituted azole-based small molecules dissolved in DMSO were added to the cultures at an empirically determined optimal concentration of 5.0 μM. […]
Cell cultures were maintained in a humidified, 5% carbon dioxide incubator at 37° C. for the required duration. […] The extracted cells were counted using an automated differential hematology cell counter (COULTER® AcT™ diff Hematology Analyzer, Beckman Coulter Inc, USA) and re-suspended in DPBS for subsequent in vitro analysis or transplantation in mice. […]

[6] = IM-29 mediated expansion of UCB
[7] = 5.0 μM, SFEM, 10 days (FIG. 8C)

## Fc1ccc(-c2nc(-c3ccc4ccccc4c3)[nH]c2-c2ccncc2)cc1 [ZQX-33, 4-[2-(naphthalen-2-yl)-4(5)-(4-fluorophenyl)-1H-imidazol-5(4)-yl]pyridine]
[1]; naphthalen-2-yl instead of 1-fluoronaphthalen-2-yl at C2, P<0.001
  HPC expansion capacity reduced relative to IM-29: at least 2 fold

## CC(C)n1cnc2c(NCCc3ccc(O)cc3)nc(-c3csc4ccccc34)nc21 [SR-1, stemregenin-1]
CD34 cells; cultures lasting up to 15 days, Wagner et al. 2016
  median CD34 expansion: 330 fold

## Cc1cccc(-c2nc(-c3ccc4ccccc4c3F)[nH]c2-c2ccncc2)c1 [IM-04, 4-[2-(1-fluoronaphthalen-2-yl)-4-(m-tolyl)-1H-imidazol-5-yl]pyridine]
[1]; 5.0 μM
  relative effectiveness in inducing ex vivo expansion of HPC/HSPC (in words): second most effective compound

## Fc1ccc(-c2nc(-c3ccc4ccccc4c3F)[nH]c2-c2ccncc2)cc1 [IM-29, 4-[2-(1-fluoronaphthalen-2-yl)-4(5)-(4-fluorophenyl)-1H-imidazol-5(4)-yl]pyridine]
[2]
  acute toxicity to UCB cells (CD45+ viability): minimal toxicity
[3]; 1.0 μM IM-29, ACF
  expansion of TNC reduced, compared to 5.0 μM: 0.83 fold
[3]; 5.0 μM, ACF, by day 11 (FIG. 11)
  increase of total nucleated cells (TNC) compared to starting cell number: about 6 fold
[3]; 10 μM IM-29, ACF
  expansion of TNC reduced, compared to 5.0 μM: 0.70 fold
[3]; [6]
  increase of total nucleated cells (summary): at least 5 fold
[4]
  expansion of colony forming units (CFU) compared to non-cultured cells: at least 100 fold
UCB-MNC expanded cells
  FISH results with probes relating to hematological malignancies: normal results
CD34+ cells
  CD34+ cell expansion, fold higher compared to cytokine control cultures: approximately 1.9 fold
[5]
  HSC2 expansion enhancement compared to cytokine-only control: at least 7.5 fold
[1]; 1.0 μM, ACF
  enhancement of HPC expansion compared to cytokine control: 2.7 fold
[1]; 5.0 μM, 10 days (FIG. 8A)
  enhancement effect for HPC expansion compared to cytokine control: 8 fold
[1]; 5.0 μM, ACF (FIG. 11)
  boost of HPC expansion on increasing culturing period from 7 days to 9 days: at least 5 fold
[1]; 5.0 μM, ACF, 10 days (FIG. 12)
  expansion of HPC, IM-29 added at both day 0 and day 7 (Group 1): ≥ 450 fold
[1]; 5.0 μM, ACF
  enhancement of HPC expansion compared to cytokine control: 3.6 fold
[1]; [7]
  HPC-associated expression of CD45+CD34+CD38−CD45RA−: about 68%
  HPC-associated expression, fold higher than cytokine control: 3 fold
[1]; 5.0 μM, SFEM, 10 days (FIG. 12)
  expansion of HPC, IM-29 added at both day 0 and day 7 (Group 1): at least 750 fold
[1]; 10.0 μM, ACF
  enhancement of HPC expansion compared to cytokine control: 2.4 fold
[1]; IM-29 at day 0 only, 10 days (FIG. 12)
  HPC expansion reduced compared to Group 1 when IM-29 not replenished on day 7 (Group 2): at least 0.7 fold
[1]; [6]
  expansion of HPC (summary): at least 1,000 fold
[1]; S+IM, T+IM, F+IM or IG+IM (data not shown)
  HPC expansion with IM-29 and a single cytokine: minimal expansion
[1]; S+T+F+IG+IM-29 vs four cytokines, ACF, 11 days (FIG. 1)
  HPC expansion, fold higher than the four cytokines culture: at least 4.7 fold
[1]; S+T+F+IM-29 5.0 μM, ACF, 11 days (FIG. 1)
  HPC expansion: 1265.2±39.1 fold
[1]; S+T+F+IM-29 vs S+T+F, ACF, 11 days (FIG. 1)
  HPC expansion enhancement effect vs S+T+F: 2.6 fold
[1]; SCF+TPO+FLT-3L+IGFBP-2+IM-29 5.0 μM, ACF, 11 days (FIG. 1)
  HPC expansion: 1513.9±6.4 fold
[1]; 5.0 μM
  relative effectiveness in inducing ex vivo expansion of HPC/HSPC (in words): most effective of those tested; also recorded: most effective compound
[1]; basal cocktail S+IG+T, ACF, 11 days (FIG. 1)
  augmentation of HPC expansion when IM-29 is added to basal cocktail: two-fold
[1]; irrespective of basal culture media, 10 days (FIG. 12)
  HPC expansion of Group 1, fold higher than cytokine control Group 3: at least 12 fold
[1]; not added at start of culture, 10 days (FIG. 12)
  effect on expanding HSPC, IM-29 added only at day 7 (Group 4): negligible effect
[1]; without any cytokines (data not shown)
  HPC expansion with IM-29 alone: did not support the expansion of HPC

## Cc1cccc(-c2oc(-c3ccc4ccccc4c3F)nc2-c2ccncc2)c1 [OZ-07, 2-(1-fluoronaphthalen-2-yl)-4-(pyridin-4-yl)-5-(m-tolyl)oxazole]
[1]; 5.0 μM
  relative effectiveness in inducing ex vivo expansion of HPC/HSPC (in words): not optimally active

## NC(=O)c1cccnc1 [NAM, nicotinamide]
CD34 cells; over 21 days, Horwitz et al. 2014
  increase of CD34 cells: 72 fold
